According to US11135228B2, “Cysteinyl-proresolving mediators that promote resolution of infection and organ protection” (THE BRIGHAM AND WOMEN'S HOSPITAL, priority 2014, dated 2021):

Columns and labels:
Human macrophages [1] = assay: Human macrophage efferocytosis of apoptotic PMN; format: cell-based; conditions: 17-series sulfido-conjugates 0.1-10 nM; apoptotic PMNs 40 min
Description: (§1) Leukocyte phagocytosis: Macrophages were prepared from peripheral blood mononuclear cells (PBMC) purchased from Children's Hospital Blood Bank, Boston, and phagocytosis was assessed as in (11). Briefly, macrophages (5×10^4 cells,/well) were incubated with SCI (10 pM-100 nM), SCII (10 pM-100 nM), MaR1 (10 pM-100 nM), or vehicle (0.1% EtOH in DPBS) for 15 min at 37° C., then fluorescent labeled apoptotic cells were added and cells incubated 45 min at 37° C. Extracellular fluorescence was quenched using Trypan blue (1:15 dilution) and phagocytosis assessed using an M3 SpectraMax plate reader. In select experiments, macrophages (5×10^4 cells/well) or neutrophils (1×10^5 cells/well) were obtained from human healthy volunteers' peripheral blood as in (11) in accordance with Partners Human Research Committee Protocol (#1999P001297), and incubated with H2DCFDA (5 μM, 30 min, 37° C.), then with SCI (10 pM-100 nM), SCI (10 pM-100 nM) or vehicle (0.1% EtOH in DPBS, 15 min, 37° C.) and E. coli (1:50 leukocytes to E. coli, 45 min, 37° C.) Intracellular reactive oxygen species were determined by measuring fluorescence using an M3 SpectraMax plate reader. To assess bacterial phagocytosis, macrophages (5×10^4 cells/well) or neutrophils (1×10^5 cells/well) were incubated with SCI (10 pM-100 nM), SCII (10 pM-100 nM) or vehicle (0.1% EtOH in DPBS, 15 min, 37° C.), then incubated with BacLight Green (Molecular Probes) labeled E. coli (1:50 leukocytes to E. coli, 45 min, 37° C.), Extracellular fluorescence was quenched using Trypan blue (1:15 dilution), and phagocytosis assessed using an M3 SpectraMax plate reader.
In determined experiments, human macrophages were incubated with SC isolates from regenerating planaria for 15 min at 37° C., then fluorescent labeled apoptotic cells were added and efferocytosis was assessed as detailed above.
Macrophage bacterial phagocytosis, efferocytosis, and phagolysosontal acidification: Human macrophages were plated in 96-well plates (5×10^4 cells per well) for 24 h, and phagocytosis or efferocytosis was assessed as in (14). In brief, apoptotic PMNs were obtained by culturing cells overnight in PBS^−/− (5×10^6 cells/ml). Apoptotic human PMNs were labeled with bisbenzimide H33342 trihydrochloride (Sigma-Aldrich). Human macrophages were incubated with 0.1-10 nM concentration of test products, and then labeled apoptotic PMNs were cocultured with macrophages for 40 min [37° C. […]]. Fluorescence was read on a SpectraMax M3 plate reader (Molecular Devices, Sunnyvale, Calif., USA), and results were analyzed using SoftMax Pro (Molecular Devices).

Human macrophages [2] = assay: Macrophage phagolysosomal acidification (pHrodo dye); format: cell-based; conditions: in the presence of bacteria, 60 min
Description: Macrophage phagolysosomal acidification was assessed by incubating macrophages with pHrodo dye (Invitrogen) following the manufacturer's instructions. Subsequently, cells were incubated with 1 nM of test compounds (15 min at 37° C.), E. coli (2.5×10^6 CFU/well) were added, and fluorescence was assessed after 60 min (37° C.) using a BZ9000 microscope equipped with a ×20 objective (Keyence, Itasca, Ill., USA) and a fluorescence plate reader.

Human macrophages [3] = assay: Human macrophage phagocytosis of fluorescently labeled E. coli; format: cell-based; conditions: 17-series sulfido-conjugates 0.1-10 nM, 15 min; bacteria 40 min
Description: as §1
Macrophage phagocytosis was assessed using fluorescently labeled E. coli (serotype O6:K2;H1) with BacLight Green Bacterial Stain (Life Technologies, Eugene, Oreg., USA). E. coli [2.5×10^6 colony-forming units (CFL)/well] were then added to macrophages previously plated in 96-well plates (40 min at 37° C.) and incubated with 0.1-10 nM concentration of test compounds [15 min at 37° C. (pH 7.45)]. Fluorescence was measured on a SpectraMax M3 plate reader, and results were analyzed using SoftMax Pro.

γ-glutamyl transferase [4] = assay: Sulfido-conjugate levels in activated human macrophages with γ-glutamyl transferase inhibitor; format: cell-based; conditions: Acivicin 2.5 mM
Description: Human macrophages (3×10^7 cells/ml) were incubated with DHA (1 μg, 37° C., PBS, pH 7.45) and E. coli (1.5×10^8 […]). Incubations were stopped with 2 volumes ice-cold methanol, products were extracted and levels assessed by LC-MS-MS. In select experiments, macrophages were incubated with Acivicin (2.5 mM, 37° C. PBS, pH 7.45) prior to addition of DHA (1 μg) and. Acivicin (2.5 mM) and products assessed by LC-MS-MS.
In select experiments, human macrophages (˜4.5×10^7 cells/ml) were incubated with DHA (10.5 μM) or 17-HpD [10 μM at 37° C. (pH 7.45)] and E. coli (1:50) for 30 min at 37° C. Incubations were stopped with 2 volumes of ice-cold methanol, products were extracted, and levels assessed by LC-MS-MS. Macrophages were also incubated with or without Acivicin [2.5 mM at 37° C., PBS (pH 7.45)], a γ-glutamyl transferase (GGT) agent that inhibits LT D4 formation (16), before addition of 17-HpD (10 μM) and E. coli (1:50; 60 min), and products were taken to […].

γ-glutamyl transferase [5] = assay: SCI and SCII levels in regenerating planaria with γ-glutamyl transferase inhibitor; format: in vivo, Dugesia japonica; conditions: Acivicin 2.5 mM
[6] = test system: Mice (hind-limb ischemia/reperfusion); assay: Hind-limb ischemia reperfusion, second organ reflow injury; format: in vivo, mouse; conditions: SCI plus SCII 50 ng each or RvD1 500 ng i.v.
Description: Ischemia Reperfusion: Mice were anesthetized by intraperitoneal (i.p.) injection of […]. To initiate hind-limb ischemia, tourniquets consisting of a rubber band were placed on each hind limb. Ten min prior to the initiation of reperfusion, Vehicle (saline containing 0.1% EtOH), SCI (50 ng) plus SCII (50 ng) or Resolvin D1 (500 ng) were administered by intravenous injection. At the end of reperfusion (3 h), mice were euthanized, blood collected via cardiac puncture and plasma isolated for lipid mediator metabololipidomics. Lungs were harvested, left lungs were frozen in liquid nitrogen and stored at −80° C. Right lungs were stored in 10% (v/v) buffered formalin and processed for histology and hematoxylin and eosin (H&E) staining by the Children's Hospital Boston Core Histology Facility, imaged using a Keyence BZ-9000 microscope and BZ II imaging software (Keyence) Expression of Ki67 and Roof plate-specific Spondin-3 (RSPO3) were assessed by immunofluorescence staining. Briefly, sections were deparafinized in xylene and rehydrated, then blocked in 10% horse serum and stained with either rat anti-mouse RSPON3 antibody (R&D Systems) for 1 h at room temperature and then with sheep anti-rat Alexa-594 conjugated antibody (BioLegend), or with rabbit anti-mouse antibody (Abeam) and then with donkey anti-rabbit Alexa-488 antibody (BioLegend). Slides were mounted in Vector Shield mounting solution with DAPI (Vector Labs) and immunofluorescence assessed using a Zeiss LSM 510 Meta confocal microscope. Images were processed using ImageJ software (National Institutes of Health) and Adobe Photoshop CS6 (Adobe Systems incorporated) software. Frozen lungs were gently dispersed, centrifuged, and tissue myeloperoxidase (MPO) levels were determined using mouse MPO ELISA (R&D Systems).

Row | SMILES | human macrophage efferocytosis (uptake of apoptotic human PMNs) (Human macrophages [1]) | macrophage phagolysosomal acidification (Human macrophages [2]) | human macrophage phagocytosis of E. coli (Human macrophages [3]) | other results
1 | CC/C=C\C[C@H](O)/C=C/C=C\C=C\C=C\[C@@H](SC[C@H](N)C(=O)NCC(=O)O)[C@@H](O)C/C=C\CCC(=O)O [RCTR2, 8-cysteinylglycinyl, 7,17-hydroxy-4Z,9,11,13Z,15E,19Z-docosahexaenoic acid] | dose-dependent increase | dose-dependent increase | dose-dependent increase | 
2 | CC/C=C\C[C@H](O)[C@@H](/C=C/C=C/C=C\C/C=C\C/C=C\CCC(=O)O)SC[C@H](N)C(=O)O [PCTR3, 16-cysteinyl, 17-hydroxy-4Z,7Z,10,12,14,19Z-docosahexaenoic acid] | dose-dependent increase | dose-dependent increase | dose-dependent increase | 
3 | CC/C=C\C[C@H](O)[C@@H](/C=C/C=C/C=C\C/C=C\C/C=C\CCC(=O)O)SC[C@H](N)C(=O)NCC(=O)O [PCTR2, 16-cysteinylglycinyl, 17-hydroxy-4Z,7Z,10,12,14,19Z-docosahexaenoic acid] | dose-dependent increase | dose-dependent increase | dose-dependent increase | 
4 | CC/C=C\C[C@H](O)/C=C/C=C\C=C\C=C\[C@@H](SC[C@H](NC(=O)CC[C@H](N)C(=O)O)C(=O)NCC(=O)O)[C@@H](O)C/C=C\CCC(=O)O [RCTR1, 8-glutathionyl, 7,17-hydroxy-4Z,9,11,13Z,15E,19Z-docosahexaenoic acid] | dose-dependent increase | dose-dependent increase | dose-dependent increase | 
5 | N[C@H](C(=O)O)[C@@H]1CC(Cl)=NO1 [Acivicin] |  |  |  | 8-cysteinyl, 7,17-dihydroxy-docosahexaenoic acid (RCTR3) levels (γ-glutamyl transferase [4]; E. coli): decrease; 8-glutathionyl, 7,17-dihydroxy-docosahexaenoic acid (RCTR1) levels (γ-glutamyl transferase [4]; E. coli): statistically significant increase; 16-cysteinyl, 17-hydroxy-docosahexaenoic acid (PCTR3) levels (γ-glutamyl transferase [4]; E. coli): decrease; 16-glutathionyl, 17-hydroxy-docosahexaenoic acid (PCTR1) levels (γ-glutamyl transferase [4]; E. coli): increase; SCI levels (γ-glutamyl transferase [4]; then DHA and E. coli): significant increase; SCII levels (γ-glutamyl transferase [4]; then DHA and E. coli): reduction; SCI level in regenerating planaria (γ-glutamyl transferase [5]): increased; SCII levels in regenerating planaria (γ-glutamyl transferase [5]): decreased
6 | CC/C=C\C[C@H](O)\C=C/C=C/C=C/[C@H](O)C/C=C\C/C=C\CCC(=O)O [PD1, 10R,17S-dihydroxy-docosa-4Z,7Z,11E,13E,15Z,19Z-hexaenoic acid, reference compound] |  |  | comparable | 
7 | CC/C=C\C[C@H](O)/C=C/C=C\C=C\C=C\[C@@H](O)[C@@H](O)C/C=C\CCC(=O)O [RvD1, 7S,8R,17S-trihydroxy-docosa-4Z,9E,11E,13Z,15E,19Z-hexaenoic acid, reference compound] |  |  |  | leukocyte infiltration/migration into lungs and spleens (MPO) [6]: comparable
8 | CC/C=C\CC(O)C(/C=C/C=C/C=C\C/C=C\C/C=C\CCC(=O)O)SCC(NC(=O)CCC(N)C(=O)O)C(=O)NCC(=O)O (stereo not shown) [PCTR1, 16-glutathionyl, 17-hydroxy-4Z,7Z,10,12,14,19Z-docosahexaenoic acid] | dose-dependent increase | dose-dependent increase | dose-dependent increase | 
